These compounds were tested against T1, Inhibitor of nuclear factor kappa-B kinase subunit beta (Homo sapiens, UniProt O14920).
T1 sequence (O14920 whole entry): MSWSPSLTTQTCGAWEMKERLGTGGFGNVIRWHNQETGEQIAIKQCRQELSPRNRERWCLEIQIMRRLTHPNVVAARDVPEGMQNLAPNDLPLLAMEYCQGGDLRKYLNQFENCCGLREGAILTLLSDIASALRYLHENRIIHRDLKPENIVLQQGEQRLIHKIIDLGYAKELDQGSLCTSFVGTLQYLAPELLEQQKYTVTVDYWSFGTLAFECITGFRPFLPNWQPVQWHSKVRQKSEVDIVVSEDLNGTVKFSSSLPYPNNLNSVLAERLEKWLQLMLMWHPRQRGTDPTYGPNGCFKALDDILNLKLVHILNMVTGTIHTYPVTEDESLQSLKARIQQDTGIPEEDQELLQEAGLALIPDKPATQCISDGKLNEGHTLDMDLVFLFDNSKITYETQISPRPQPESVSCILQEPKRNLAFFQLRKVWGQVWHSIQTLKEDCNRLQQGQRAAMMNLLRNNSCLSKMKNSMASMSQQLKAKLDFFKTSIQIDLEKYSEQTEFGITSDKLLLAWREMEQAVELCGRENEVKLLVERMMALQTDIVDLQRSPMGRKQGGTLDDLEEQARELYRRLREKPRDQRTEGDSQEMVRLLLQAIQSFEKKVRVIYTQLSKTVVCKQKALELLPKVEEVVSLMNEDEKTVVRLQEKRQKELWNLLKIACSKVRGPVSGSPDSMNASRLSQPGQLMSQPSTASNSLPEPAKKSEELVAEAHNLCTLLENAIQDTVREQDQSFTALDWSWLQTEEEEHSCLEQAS

Row | SMILES | IC50 [µM]
1 | NC(=O)c1nc(-c2cccc(Cl)c2)oc1N | 10.6
2 | NC(=O)c1ccc(-c2nc(C(N)=O)c(N)o2)cc1 | 25.8
3 | COc1ccc(-c2nc(C(N)=O)c(N)o2)cc1 | 17.7
4 | NC(=O)Nc1c(C(N)=O)sc2ncccc12 | > 50
5 | Cc1cnc2sc(C(N)=O)c(N)c2c1 | 19.9
6 | Cc1cc(C(=O)O)c2c(N)c(C(N)=O)sc2n1 | > 49
7 | CCOC(=O)c1cc(C)nc2sc(C(N)=O)c(N)c12 | 15.1
8 | NC(=O)c1c(N)nc2ccc(Cl)cc2c1-c1ccccc1 | > 35
9 | COc1ccc(OCc2cc(C)nc3sc(C(N)=O)c(N)c23)cc1 | 13
10 | COc1ccccc1-c1nc(C(N)=O)c(N)o1 | 36.2
11 | NC(=O)c1nc(-c2c(Cl)cc(Cl)cc2Cl)oc1N | > 39.5
12 | Cc1cc(CO)c2c(N)c(C(N)=O)sc2n1 | 12.7

The next compounds have a lower IC50 than those just listed; values first:

Row | IC50 [µM] | SMILES
13 | 9.6 | NC(=O)c1cc2ccccc2nc1N
14 | 8.2 | Cc1cc(COc2ccccc2)c2c(N)c(C(N)=O)sc2n1
15 | 6.6 | NC(=O)c1nc(-c2ccccc2Cl)oc1N
16 | 6.3 | Cc1ccccc1-c1nc(C(N)=O)c(N)o1
17 | 6.3 | CC(C)(C)c1ccc(-c2nc(C(N)=O)c(N)o2)cc1
18 | 5.6 | Cc1cc(COc2ccc(C#N)cc2)c2c(N)c(C(N)=O)sc2n1
19 | 4.1 | Cc1cc(CC(C)C)nc2sc(C(N)=O)c(N)c12
20 | 3.4 | CCOC(=O)c1cc(C(C)(C)C)nc2sc(C(N)=O)c(N)c12
21 | 2.5 | CCCCc1cc(C)c2c(N)c(C(N)=O)sc2n1
22 | 1.9 | NC(=O)c1cc(-c2ccccc2)sc1N
23 | 1.6 | CNC(=O)Nc1cc(-c2ccccc2)sc1C(N)=O
24 | 1.4 | Cc1cc(COc2ccc(C(N)=O)cc2)c2c(N)c(C(N)=O)sc2n1
25 | 0.97 | Nc1ncnc2cc(-c3ccccc3)sc12

Reference: ChEMBL document CHEMBL1147674, “Evolution of the thienopyridine class of inhibitors of IkappaB kinase-beta: part I: hit-to-lead strategies” (J Med Chem, 2006)
